According to patent US20260001871A1, “TRIAZOLE DERIVATIVES AS MODULATORS OF MAS-RELATED G-PROTEIN RECEPTOR D” (ESCIENT PHARMACEUTICALS, INC., priority 2022, published 2026):

Biological target: human MRGPRD (Homo sapiens, UniProt Q8TDS7)
Assay: MRGPRD antagonist activity, IP-One HTRF assay in CHO cells stably expressing human MRGPRD (versus 100 μM β-Alanine agonist)
Type: cell-based
Experimental: Chinese Hamster Ovary (CHO) cells stably expressing human MRGPRD (Eurofins, San Diego CA) were plated in a 384-well plate at 20,000 cells per well in 12 μL of Optimem (Fisher Scientific 11-058-021). Plates were kept in the incubator at 37° C. overnight. Antagonists were solubilized at a concentration of 10 mM in DMSO, and the agonists were solubilized to stock concentrations of either 50 mM in H2O (β-Alanine) or 10 mM in DMSO (all others) and then diluted in assay buffer (final concentrations of 5.7 mM Tris-HCl, 43 mM NaCl, 50 mM LiCl, pH=8). The concentration of DMSO was normalized across the plate. Antagonists were added to the plate using a Tecan D300 Digital Dispenser at nanoliter/picoliter volumes and 2 μL of agonists in assay buffer were added to each well for a final assay volume of 14 μL. Plates were covered and incubated for 1 h at 37° C. and then for 1 h at room temperature. IP-1 standards and HTRF detection reagents were added according to an IP-One—Gq Kit purchased from Cisbio (part number 621PAPEJ) and incubated in the dark for 1 h at room temperature. Assay plates were read on either a Molecular Devices SpectraMax iD5 plate reader or a BMG ClarioStar plate reader. The HTRF ratio was calculated form the raw data and graphed using GraphPad Prism to calculate IC50 values. Data are expressed as average IC50 values and average percent antagonism calculated as a percent of the maximum efficacy response. For these studies, the variability of the data was assessed by determining the standard error of mean (SEM).
The activity ranges are denoted as follows: “+++++” denotes antagonist activity<100 nM; “++++” denotes antagonist activity between 100 and 500 nM; “+++” denotes activity between 500 and 1000 nM; “++” denotes activity between 1000 and 3000 nM; and “+” denotes activity>3000 nM.

Chain of human MRGPRD (Q8TDS7 whole entry): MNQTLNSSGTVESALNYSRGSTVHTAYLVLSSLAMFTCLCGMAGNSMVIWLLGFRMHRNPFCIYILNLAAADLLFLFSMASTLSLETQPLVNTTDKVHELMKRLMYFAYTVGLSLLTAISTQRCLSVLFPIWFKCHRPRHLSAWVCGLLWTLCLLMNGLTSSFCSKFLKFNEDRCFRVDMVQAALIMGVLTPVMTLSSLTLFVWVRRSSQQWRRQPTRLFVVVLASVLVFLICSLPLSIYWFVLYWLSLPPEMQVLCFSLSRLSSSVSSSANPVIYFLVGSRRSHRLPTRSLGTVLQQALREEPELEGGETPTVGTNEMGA

SMILES: O=C(Nc1ccncc1)c1nnn(-c2ccc(-c3cnsc3)cc2)c1C1CC1 [Compound 7-79]
- IC50: 0.1 to 0.5 µM

SMILES: Cc1n[nH]c2ncnc(NC(=O)c3nnn(C4CC=C(c5ccc(C#N)cc5)CC4)c3C3CC3)c12 (centres unmarked) [Compound 12-2]
- IC50: 0.1 to 0.5 µM

SMILES: O=C(Nc1ccncc1)c1nnn(-c2cccc(-c3cnn(C4CCC4)c3)c2)c1C1CC1 [Compound 7-243]
- IC50: 0.5 to 1 µM

SMILES: O=C(Nc1ccncc1)c1nnn(-c2ccc(-c3ccccc3Cl)cc2)c1C1CC1 [Compound 7-145]
- IC50: 0.5 to 1 µM

SMILES: CCc1ccc(-n2nnc(C(=O)Nc3ccncc3)c2C2CC2)cc1-c1cccc(C(C)=O)c1 [Compound 7-317]
- IC50: 1 to 3 µM

SMILES: CC(NC(=O)c1nnn(-c2ccc(-c3ccc(C#N)c(F)c3)cc2)c1C1CC1)c1ccn(C)n1 (centres unmarked) [Compound 15-7]
- IC50: 1 to 3 µM

SMILES: N#Cc1ccc(-c2ccc(-n3nnc(C(=O)NC4(c5cncc(Cl)c5)CC4)c3C3CC3)cc2)cc1F [Compound 18-13]
- IC50: 0.1 to 0.5 µM

SMILES: Cc1nn(C)c(C)c1-c1ccc(-n2nnc(C(=O)NCc3cccnc3)c2C(C)C)cc1 [Compound 17-22]
- IC50: 0.1 to 0.5 µM

SMILES: Cn1cc(CNC(=O)c2nnn(-c3ccc(-c4ccccc4)cc3)c2C2CC2)cn1 [Compound 14-34]
- IC50: 1 to 3 µM

SMILES: Cc1cc(NC(=O)c2nnn(-c3cccc(-c4c(C)nn(C)c4C)c3)c2C2CC2)ccn1 [Compound 7-291]
- IC50: 1 to 3 µM

SMILES: O=C(Nc1cccc2nccn12)c1nnn(-c2ccc(-c3ccccc3)cc2)c1C1CC1 [Compound 14-65]
- IC50: 1 to 3 µM

SMILES: Cn1cc(-c2cccc(-n3nnc(C(=O)Nc4ccncc4)c3C3CC3)c2)cn1 [Compound 7-326]
- IC50: 1 to 3 µM

SMILES: CC(=O)c1ccc(-c2cccc(-n3nnc(C(=O)Nc4ccncc4)c3C3CC3)c2)s1 [Compound 7-265]
- IC50: 0.5 to 1 µM

SMILES: COc1ccc(-c2ccc(-n3nnc(C(=O)Nc4ccncc4)c3C3CC3)cc2)cc1 [Compound 7-27]
- IC50: 0.1 to 0.5 µM

SMILES: O=C(Nc1ccncc1)c1nnn(-c2ccc(-c3ncc[nH]3)cc2)c1C1CC1 [Compound 7-3]
- IC50: > 3 µM

SMILES: Cn1c(CNC(=O)c2nnn(-c3ccc(-c4ccc(CC#N)cc4)cc3)c2C2CC2)nc2ccccc21 [Compound 15-6]
- IC50: 1 to 3 µM

SMILES: COc1cc(NC(=O)c2nnn(-c3ccc(-c4ccccc4)cc3)c2C2CC2)cc(C)n1 [Compound 14-23]
- IC50: 0.5 to 1 µM

SMILES: O=C(Nc1ccncc1)c1nnn(-c2cccc(-c3ccn[nH]3)c2)c1C1CC1 [Compound 7-295]
- IC50: 1 to 3 µM

SMILES: O=C(Nc1ccncc1)c1nnn(-c2cccc(-c3cccc(F)c3)c2)c1C1CC1 [Compound 7-308]
- IC50: 1 to 3 µM

SMILES: Cc1ccc(C2(NC(=O)c3nnn(-c4ccc(-c5c(C)nn(-c6ccccc6)c5C)cc4F)c3C3CC3)CC2)cn1 [Compound 7-225]
- IC50: < 0.1 µM

SMILES: Cc1ccc(CNC(=O)c2nnn(-c3ccc(-c4ccccc4)cc3)c2C2CC2)cn1 [Compound 14-20]
- IC50: 0.5 to 1 µM

SMILES: CCc1cccc(-n2nnc(C(=O)Nc3ccncc3)c2C2CC2)c1 [Compound 3-1, 5-cyclopropyl-1-(3-ethylphenyl)-N-(pyridin-4-yl)-1H-1,2,3-triazole-4-carboxamide]
- IC50: 0.5 to 1 µM

SMILES: COc1ccc(-n2nnc(C(=O)Nc3ccncc3)c2C2CC2)cc1 [Compound 2-4, 5-cyclopropyl-1-(4-methoxyphenyl)-N-(pyridin-4-yl)-1H-1,2,3-triazole-4-carboxamide]
- IC50: 0.5 to 1 µM

SMILES: CCn1ccc(-c2cccc(-n3nnc(C(=O)Nc4ccnc(C)c4)c3C3CC3)c2)n1 [Compound 7-262]
- IC50: 0.5 to 1 µM

SMILES: O=C(NC1(c2cncc(Cl)c2)CC1)c1nnn(-c2ccc(-c3cnn(Cc4ccccc4)c3)cc2)c1C1CC1 [Compound 18-19]
- IC50: 1 to 3 µM

SMILES: Cc1ccc(C2(NC(=O)c3nnn(-c4ccc(-c5c(C)nn(-c6ccccc6)c5C)cc4)c3C3CC3)CC2)cn1 [Compound 9-6]
- IC50: < 0.1 µM

SMILES: CCn1cc(CNC(=O)c2nnn(-c3ccc(-c4ccc(CC#N)cc4)cc3)c2C2CC2)cn1 [Compound 17-5]
- IC50: 0.1 to 0.5 µM

SMILES: CCn1cc(CNC(=O)c2nnn(-c3ccc(-c4ccc(C#N)cc4)cc3)c2C2CCC2)cn1 [Compound 17-26]
- IC50: 0.5 to 1 µM

SMILES: Cc1ccc(CNC(=O)c2nnn(-c3cccc(-c4ccc(C#N)cc4)c3)c2C2CC2)cn1 [Compound 7-7]
- IC50: > 3 µM

SMILES: CCn1cc(CNC(=O)c2nnn(-c3ccc(-c4c(C)nn5ccccc45)cc3)c2C(C)C)cn1 [Compound 10-11]
- IC50: < 0.1 µM

SMILES: Cc1csc(CNC(=O)c2nnn(-c3ccc(-c4ccccc4)cc3)c2C2CC2)n1 [Compound 14-21]
- IC50: 0.5 to 1 µM

SMILES: CC(=O)c1cccc(-c2ccc(-n3nnc(C(=O)Nc4ccncc4)c3C3CC3)cc2)c1F [Compound 7-85]
- IC50: 0.1 to 0.5 µM

SMILES: N#Cc1ccc(-n2nnc(C(=O)Nc3ccncc3)c2C2CC2)cc1 [Compound 2-1]
- IC50: > 3 µM

SMILES: O=C(Nc1ccncc1)c1nnn(-c2ccc(-c3ccc(C(F)F)cc3)cc2)c1C1CC1 [Compound 7-28]
- IC50: 0.1 to 0.5 µM

SMILES: O=C(Nc1ccncc1)c1nnn(-c2cccc(-c3cn[nH]c3)c2)c1C1CC1 [Compound 7-310]
- IC50: 1 to 3 µM

SMILES: O=C(Nc1ccncc1)c1nnn(-c2cccc(-c3cnn(Cc4ccccc4)c3)c2)c1C1CC1 [Compound 7-270]
- IC50: 0.5 to 1 µM

SMILES: COc1ccc2[nH]cc(CC(C)NC(=O)c3nnn(-c4ccc(-c5ccccc5)cc4)c3C3CC3)c2c1 (centres unmarked) [Compound 14-59]
- IC50: 1 to 3 µM

SMILES: C#Cc1ccc(-c2ccc(-n3nnc(C(=O)Nc4ccncc4)c3C3CC3)cc2)cc1 [Compound 7-150]
- IC50: 0.5 to 1 µM

SMILES: O=C(Nc1ccncc1)c1nnn(-c2ccc(-c3ccc[nH]3)cc2)c1C1CC1 [Compound 7-77]
- IC50: 0.1 to 0.5 µM

SMILES: Cc1nn(C)c2ccnc(NC(=O)c3nnn(-c4ccc(-c5ccccc5)cc4)c3C3CC3)c12 [Compound 14-51]
- IC50: 1 to 3 µM

SMILES: O=C(Nc1ccncc1)c1nnn(-c2ccc(-c3ccc(CC4CC4)cc3)cc2)c1C1CC1 [Compound 7-149]
- IC50: 0.5 to 1 µM

SMILES: CCc1ccc(C2(NC(=O)c3nnn(-c4ccc(-c5c(C)nn(C)c5C)cc4)c3C3CC3)CC2)cn1 [Compound 9-33]
- IC50: 1 to 3 µM

SMILES: O=C(NC1(c2cccnc2)CC1)c1nnn(-c2ccc(-c3ccccc3)cc2)c1C1CC1 [Compound 14-46]
- IC50: 1 to 3 µM

SMILES: Cc1ncccc1CNC(=O)c1nnn(-c2ccc(-c3c(C)nn(-c4ccccc4)c3C)cc2)c1C1CC1 [Compound 9-4]
- IC50: < 0.1 µM

SMILES: COc1ccc(C2(NC(=O)c3nnn(-c4ccc(-c5c(C)nn6ccccc56)cc4)c3C(C)C)CC2)cn1 [Compound 19-4]
- IC50: 0.1 to 0.5 µM

SMILES: Cc1cc(NC(=O)c2nnn(-c3ccc(-c4c(C)nn(C)c4F)cc3F)c2C2CC2)ccn1 [Compound 7-224]
- IC50: < 0.1 µM

SMILES: CC(C)c1ccc(-c2ccc(-n3nnc(C(=O)Nc4ccncc4)c3C3CC3)cc2)cc1 [Compound 7-214]
- IC50: > 3 µM

SMILES: Cc1cc(NC(=O)c2nnn(C3CC=C(c4c(C)nn(-c5ccccc5)c4C)CC3)c2C2CC2)ccn1 (centres unmarked) [Compound 12-3]
- IC50: 0.5 to 1 µM

SMILES: CC(=O)c1cccc(-c2cccc(-n3nnc(C(=O)NC(C)c4nc5ccccc5n4C)c3C3CC3)c2)c1 (centres unmarked) [Compound 18-22]
- IC50: > 3 µM

SMILES: O=C(Nc1ccnc(C(F)(F)F)c1)c1nnn(-c2ccc(-c3ccccc3)cc2)c1C1CC1 [Compound 14-52]
- IC50: 1 to 3 µM

SMILES: O=C(Nc1ccncc1)c1nnn(-c2ccc(-c3cncnc3)cc2)c1C1CC1 [Compound 7-203]
- IC50: 1 to 3 µM

SMILES: N#Cc1cccc(-c2cccc(-n3nnc(C(=O)Nc4ccncc4)c3C3CC3)c2)c1 [Compound 7-293]
- IC50: 1 to 3 µM

SMILES: COCCn1nnc(C(=O)Nc2ccncc2)c1C1CC1 [Compound 6-4]
- IC50: 1 to 3 µM

SMILES: Cc1nn(C)c(C)c1-c1ccc(-n2nnc(C(=O)Nc3ccncc3)c2C2CC2)c(C(F)(F)F)c1 [Compound 7-300]
- IC50: 1 to 3 µM

SMILES: O=C(Nc1ccncc1)c1nnn(-c2ccc(-c3ccccn3)cc2)c1C1CC1 [Compound 7-200]
- IC50: 1 to 3 µM

SMILES: CCn1cc(CNC(=O)c2nnn(-c3ccc(-c4ccc(C#N)cc4)cn3)c2C(C)C)cn1 [Compound 17-20]
- IC50: 0.1 to 0.5 µM

SMILES: CN(C)C(=O)c1ccc(-c2ccc(-n3nnc(C(=O)Nc4ccncc4)c3C3CC3)cc2)cc1 [Compound 7-207]
- IC50: 1 to 3 µM

SMILES: Cc1ncccc1CNC(=O)c1nnn(-c2ccc(-c3cccc(CC#N)c3)cc2)c1C1CC1 [Compound 16-3]
- IC50: 0.1 to 0.5 µM

SMILES: O=C(Nc1ccncc1)c1nnn(-c2ccc(-c3ccccc3)cc2)c1C1CC1 [Compound 2-3]
- IC50: 0.5 to 1 µM

SMILES: Cc1ccc(-n2nnc(C(=O)Nc3cc(C)nc(C)c3)c2C2CC2)cc1 [Compound 1-6]
- IC50: 0.5 to 1 µM

SMILES: Cc1c(-c2ccc(-n3nnc(C(=O)Nc4ccncc4)c3C3CC3)cc2)c(CO)nn1C [Compound 7-100]
- IC50: 0.1 to 0.5 µM

SMILES: CC(C)c1cc(NC(=O)c2nnn(-c3ccc(-c4ccccc4)cc3)c2C2CC2)ccn1 [Compound 14-16, 1-([1,1′-biphenyl]-4-yl)-5-cyclopropyl-N-(2-isopropylpyridin-4-yl)-1H-1,2,3-triazole-4-carboxamide]
- IC50: 0.1 to 0.5 µM

SMILES: CC(C)(C)c1cccc(-c2ccc(-n3nnc(C(=O)Nc4ccncc4)c3C3CC3)cc2)c1 [Compound 7-201]
- IC50: 1 to 3 µM

SMILES: Cc1cc(NC(=O)c2nnn(-c3ccc(-c4ccc(C(F)F)nc4)cc3)c2C2CC2)ccn1 [Compound 15-20]
- IC50: 0.1 to 0.5 µM

SMILES: O=C(Nc1ccncc1)c1nnn(C2CCCC2)c1C1CC1 [Compound 6-5]
- IC50: 1 to 3 µM
